Experiments:
[1] = tested on: Phakopsora Pachyrhizi; assay: Fungicidal activity against Phakopsora pachyrhizi / soybean / leaf disc preventative (Asian soybean rust); type: in vivo; conditions: foliar, 200 ppm in the applied formulation, soybean leaf disks, compared to untreated control leaf disks, read-out: disease control
Procedure, shortened: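 Preventative soybean leaf-disc test: discs on water agar sprayed with diluted formulated compound, inoculated one day later with spores on the lower surface. Held 24–36 h dark at 20°C, 75% rh, then 12 h light/day; percent disease control versus untreated discs scored 12–14 days after application.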

[2] = tested on: Puccinia recondita f. Sp. Tritici; assay: Fungicidal activity against Puccinia recondita f. sp. tritici / wheat / leaf disc curative (brown rust); type: in vivo; conditions: foliar, 24 h, 200 ppm in the applied formulation, wheat leaf segments, curative (applied 1 day after inoculation), compared to untreated control leaf disks, read-out: disease control
Procedure, shortened: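 Scoring is percent disease control relative to untreated segments, made 6 to 8 days after treatment. Wheat (cv. Kanzler) leaf segments received the formulated, water-diluted compound one day post-inoculation with spores, having been kept dark at 19° C and 75% RH, then incubated under 12 h light/12 h dark at the same temperature and humidity.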

[3] = tested on: Puccinia recondita f. Sp. Tritici; assay: Fungicidal activity against Puccinia recondita f. sp. tritici / wheat / leaf disc preventative (brown rust); type: in vivo; conditions: foliar, 200 ppm in the applied formulation, wheat leaf segments, preventative, compared to untreated control leaf disks, read-out: disease control
Procedure, shortened: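 Compound application precedes infection: segments of wheat cv. Kanzler, sprayed at 200 ppm, are inoculated with a spore suspension after 1 day. Incubation is at 19° C. with 75% relative humidity and 12 h light/12 h darkness, and control versus untreated leaves is rated 7 to 9 days post-application.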

[4] = tested on: Glomerella lagenarium (Colletotrichum lagenarium); assay: Fungicidal activity against Glomerella lagenarium (Colletotrichum lagenarium) liquid culture / cucumber / preventative (anthracnose); type: cell-based; conditions: Colletotrichum orbiculare; 20 ppm in the applied formulation; liquid culture (PDB), growth inhibition measured photometrically after 3 to 4 days; compared to untreated control; read-out: disease control
Procedure, shortened: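 Photometric read-out of fungal growth after 2–7 days, expressed as percent antifungal activity versus untreated check. Cryo-stored conidia in PDB; compound at 20 ppm; dark, 24 °C, 96% RH.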

CON(Cc1ccc(-c2noc(C(F)(F)F)n2)c(F)c1F)C(=O)C1CC1 [Compound 1.584, N-[[2,3-difluoro-4-[5-(trifluoromethyl)-1,2,4-oxadiazol-3-yl]phenyl]methyl]-N-methoxy-cyclopropane-carboxamide]
≥ 80%: pest or weed control at 200 ppm [1] | pest or weed control at 200 ppm [2] | pest or weed control at 200 ppm [3] | inhibition of growth at 20 ppm [4]

CCC(=O)N(Cc1ccc(-c2noc(C(F)(F)F)n2)c(F)c1F)OC [Compound 1.585, N-[[2,3-difluoro-4-[5-(trifluoromethyl)-1,2,4-oxadiazol-3-yl)phenyl]methyl)-N-methoxy-propanamide]
≥ 80%: pest or weed control at 200 ppm [1] | pest or weed control at 200 ppm [2] | pest or weed control at 200 ppm [3] | inhibition of growth at 20 ppm [4]

O=C(C1CCCO1)N(Cc1ccc(-c2noc(C(F)(F)F)n2)cc1)CC(F)(F)F (centres unmarked) [Compound 1.587, N-(2,2,2-Trifluoroethyl)-N-[[4-[5-(Trifluoromethyl)-1,2,4-Oxadiazol-3-yl]Phenyl]Methyl]Tetrahydrofuran-2-Carboxamide]
≥ 80%: pest or weed control at 200 ppm [1] | pest or weed control at 200 ppm [2] | pest or weed control at 200 ppm [3] | inhibition of growth at 20 ppm [4]

CCC(=O)N(Cc1ccc(-c2noc(C(F)(F)F)n2)cc1)C(C)C [Compound 1.589, N-isopropyl-N-[[4-[5-(trifluoromethyl)-1,2,4-oxadiazol-3-yl]phenyl]methyl]-propanamide]
≥ 80%: pest or weed control at 200 ppm [1] | pest or weed control at 200 ppm [2] | pest or weed control at 200 ppm [3] | inhibition of growth at 20 ppm [4]

CCC(=O)OCCN(Cc1ccc(-c2noc(C(F)(F)F)n2)cc1)C(=O)CC [Compound 1.590, 2-[propanoyl-[[4-[5-(trifluoromethyl)-1,2,4-oxadiazol-3-yl]phenyl]methyl]-amino]ethyl propanoate]
≥ 80%: pest or weed control at 200 ppm [1] | pest or weed control at 200 ppm [2] | pest or weed control at 200 ppm [3] | inhibition of growth at 20 ppm [4]

CCC(=O)N(CCO)Cc1ccc(-c2noc(C(F)(F)F)n2)cc1 [Compound 1.591, N-(2-hydroxyethyl)-N-[[4-[5-(trifiuoromethyl)-1,2,4-oxadiazol-3-yl]phenyl]methyl]-propanamide]
≥ 80%: pest or weed control at 200 ppm [1] | pest or weed control at 200 ppm [2] | pest or weed control at 200 ppm [3] | inhibition of growth at 20 ppm [4]

C=CCN(C(=O)CC)C(C#N)c1ccc(-c2noc(C(F)(F)F)n2)cc1 (centres unmarked) [Compound 1.592, N-allyl-N-[cyano-[4-[5-(trifluoromethyl)-1,2,4-oxadiazol-3-yl]phenyl]methyl]-propanamide]
≥ 80%: pest or weed control at 200 ppm [1] | pest or weed control at 200 ppm [2] | pest or weed control at 200 ppm [3] | inhibition of growth at 20 ppm [4]

CCC(=O)N(Cc1c(F)cc(-c2noc(C(F)(F)F)n2)cc1F)OC [Compound 1.594, N-[[2,6-difluoro-4-[5-(trifluoromethyl)-1,2,4-oxadiazol-3-yl]phenyl]methyl]-N-methoxy-propanamide]
≥ 80%: pest or weed control at 200 ppm [1] | pest or weed control at 200 ppm [2] | pest or weed control at 200 ppm [3] | inhibition of growth at 20 ppm [4]

CN(Cc1ccc(-c2noc(C(F)(F)F)n2)cc1)C(=O)COC(F)F [Compound 1.595, 2-(difluoromethoxy)-N-methyl-N-[[4-[5-(trifluoromethyl)-1,2,4-oxadiazol-3-yl]phenyl]methyl]-acetamide]
≥ 80%: pest or weed control at 200 ppm [1] | pest or weed control at 200 ppm [2] | pest or weed control at 200 ppm [3] | inhibition of growth at 20 ppm [4]

CON(Cc1c(F)cc(-c2noc(C(F)(F)F)n2)cc1F)C(=O)C1CC1 [Compound 1.596, N-[[2,6-difluoro-4-[5-(trifluoromethyl)-1,2,4-oxadiazol-3-yl]phenyl]methyl]-N-methoxy-cyclopropane-carboxamide]
≥ 80%: pest or weed control at 200 ppm [1] | pest or weed control at 200 ppm [2] | pest or weed control at 200 ppm [3] | inhibition of growth at 20 ppm [4]

CON(Cc1c(F)cc(-c2noc(C(F)(F)F)n2)cc1F)C(=O)C1CCCO1 (centres unmarked) [Compound 1.597, N-[[2,6-difluoro-4-[5-(trifluoromethyl)-1,2,4-oxadiazol-3-yl]phenyl]methyl)-N-methoxy-tetrahydrofuran-2-carboxamide]
≥ 80%: pest or weed control at 200 ppm [1] | pest or weed control at 200 ppm [2] | pest or weed control at 200 ppm [3] | inhibition of growth at 20 ppm [4]

CC(C)N(Cc1ccc(-c2noc(C(F)(F)F)n2)cc1)C(=O)C1CC1 [Compound 1.599, N-isopropyl-N-[[4-[5-(trifluoromethyl)-1,2,4-oxadiazol-3-yl]phenyl]methyl]-cyclopropane-carboxamide]
≥ 80%: pest or weed control at 200 ppm [1] | pest or weed control at 200 ppm [2] | pest or weed control at 200 ppm [3] | inhibition of growth at 20 ppm [4]

COCC(=O)N(Cc1ccc(-c2noc(C(F)(F)F)n2)cc1)C(C)C [Compound 1.600, N-isopropyl-2-methoxy-N-[[4-[5-(trifluoromethyl)-1,2,4-oxadiazol-3-yl]phenyl]methyl]-acetamide]
≥ 80%: pest or weed control at 200 ppm [1] | pest or weed control at 200 ppm [2] | pest or weed control at 200 ppm [3] | inhibition of growth at 20 ppm [4]

O=C(ON(Cc1ccc(-c2noc(C(F)(F)F)n2)cc1)C(=O)C1CC1)C1CC1 [Compound 1.608, [cyclopropanecarbonyl-[[4-[5-(trifluoromethyl)-1,2,4-oxadiazol-3-yl]phenyl]methyl]-amino]-cyclopropane-carboxylate]
≥ 80%: pest or weed control at 200 ppm [1] | pest or weed control at 200 ppm [2] | pest or weed control at 200 ppm [3] | inhibition of growth at 20 ppm [4]

COCC(=O)N(CCO)Cc1ccc(-c2noc(C(F)(F)F)n2)cc1 [Compound 1.610, N-(2-hydroxyethyl)-2-methoxy-N-[[4-[5-(trifluoromethyl)-1,2,4-oxadiazol-3-yl]phenyl]methyl]-acetamide]
≥ 80%: pest or weed control at 200 ppm [1] | pest or weed control at 200 ppm [2] | pest or weed control at 200 ppm [3] | inhibition of growth at 20 ppm [4]

CN(C(=O)C1CC1)C(C#N)c1ccc(-c2noc(C(F)(F)F)n2)cc1 (centres unmarked) [Compound 1.612, N-[cyano-[4-[5-(trifluoromethyl)-1,2,4-oxadiazol-3-yl]phenyl]methyl)-N-methyl-cyclopropane-carboxamide]
≥ 80%: pest or weed control at 200 ppm [1] | pest or weed control at 200 ppm [2] | pest or weed control at 200 ppm [3] | inhibition of growth at 20 ppm [4]

COCC(=O)N(Cc1ccc(-c2noc(C(F)(F)F)n2)cc1)C1COC1 [Compound 1.613, 2-methoxy-N-(oxetan-3-yl)-N-[[4-[5-(trifluoromelhyl)-1,2,4-oxadiazol-3-yl]phenyl]methyl]-acetamide]
≥ 80%: pest or weed control at 200 ppm [1] | pest or weed control at 200 ppm [2] | pest or weed control at 200 ppm [3] | inhibition of growth at 20 ppm [4]

CCON(Cc1ccc(-c2noc(C(F)(F)F)n2)cc1)C(=O)C(C)C [Compound 1.614, N-ethoxy-2-methyl-N-[[4-[5-(trifluoromethyl)-1,2,4-oxadiazol-3-yl]phenyl]methyl]-propanamide]
≥ 80%: pest or weed control at 200 ppm [1] | pest or weed control at 200 ppm [2] | pest or weed control at 200 ppm [3] | inhibition of growth at 20 ppm [4]

CCON(Cc1ccc(-c2noc(C(F)(F)F)n2)cc1)C(=O)C1CC1(F)F (centres unmarked) [Compound 1.615, N-ethoxy-2,2-difluoro-N-[[4-[5-(trifluoromethyl)-1,2,4-oxadiazol-3-yl]phenyl]methyl]-cyclopropane-carboxamide]
≥ 80%: pest or weed control at 200 ppm [1] | pest or weed control at 200 ppm [2] | pest or weed control at 200 ppm [3] | inhibition of growth at 20 ppm [4]

CCON(Cc1ccc(-c2noc(C(F)(F)F)n2)cc1)C(=O)C1CCOC1 (centres unmarked) [Compound 1.617, N-ethoxy-N-[[4-[5-(trifluoromethyl)-1,2,4-oxadiazol-3-yl]phenyl]methyl]-tetrahydrofuran-3-carboxamide]
≥ 80%: pest or weed control at 200 ppm [1] | pest or weed control at 200 ppm [2] | pest or weed control at 200 ppm [3] | inhibition of growth at 20 ppm [4]

CCON(Cc1ccc(-c2noc(C(F)(F)F)n2)cc1)C(=O)CCOC [Compound 1.618, N-ethoxy-3-methoxy-N-[[4-[5-(trifluoromethyl)-1,2,4-oxadiazol-3-yl]phenyl]methyl]-propanamide]
≥ 80%: pest or weed control at 200 ppm [1] | pest or weed control at 200 ppm [2] | pest or weed control at 200 ppm [3] | inhibition of growth at 20 ppm [4]

CCON(Cc1ccc(-c2noc(C(F)(F)F)n2)cc1)C(=O)C1CC1C (centres unmarked) [Compound 1.620]
≥ 80%: pest or weed control at 200 ppm [1] | pest or weed control at 200 ppm [2] | pest or weed control at 200 ppm [3] | inhibition of growth at 20 ppm [4]

CCON(Cc1ccc(-c2noc(C(F)(F)F)n2)cc1)C(=O)C1(C)CC1 [Compound 1.621, N-ethoxy-1-methyl-N-[[4-[5-(trifluoromethyl)-1,2,4-oxadiazol-3-yl]phenyl]methyl]-cyclopropane-carboxamide]
≥ 80%: pest or weed control at 200 ppm [1] | pest or weed control at 200 ppm [2] | pest or weed control at 200 ppm [3] | inhibition of growth at 20 ppm [4]

Reference: patent US11180462B2, “Microbiocidal oxadiazole derivatives” (SYNGENTA PARTICIPATIONS AG, priority 2015, dated 2021)
